Measured values reported in PMC12406203 (Journal of Medicinal Chemistry, 2025).

Legend:
Assay in all cases: KINOMEscan
Type in all cases: binding
MKNK2 = molecular target: T1, MKNK2 (Homo sapiens, UniProt Q9HBH9)
T1 construct: purchased Eurofins DiscoverX, LLC; host or cells: E. coli (BL21-derived, T7 phage) or HEK-293

KIT(V559D,T670I) = molecular target: T2, KIT(V559D,T670I) (Homo sapiens, UniProt P10721, T670I/V559D)
T2 construct: purchased Eurofins DiscoverX, LLC; host or cells: E. coli (BL21-derived, T7 phage) or HEK-293
T2 sequence (P10721 26-976 V559D/T670I): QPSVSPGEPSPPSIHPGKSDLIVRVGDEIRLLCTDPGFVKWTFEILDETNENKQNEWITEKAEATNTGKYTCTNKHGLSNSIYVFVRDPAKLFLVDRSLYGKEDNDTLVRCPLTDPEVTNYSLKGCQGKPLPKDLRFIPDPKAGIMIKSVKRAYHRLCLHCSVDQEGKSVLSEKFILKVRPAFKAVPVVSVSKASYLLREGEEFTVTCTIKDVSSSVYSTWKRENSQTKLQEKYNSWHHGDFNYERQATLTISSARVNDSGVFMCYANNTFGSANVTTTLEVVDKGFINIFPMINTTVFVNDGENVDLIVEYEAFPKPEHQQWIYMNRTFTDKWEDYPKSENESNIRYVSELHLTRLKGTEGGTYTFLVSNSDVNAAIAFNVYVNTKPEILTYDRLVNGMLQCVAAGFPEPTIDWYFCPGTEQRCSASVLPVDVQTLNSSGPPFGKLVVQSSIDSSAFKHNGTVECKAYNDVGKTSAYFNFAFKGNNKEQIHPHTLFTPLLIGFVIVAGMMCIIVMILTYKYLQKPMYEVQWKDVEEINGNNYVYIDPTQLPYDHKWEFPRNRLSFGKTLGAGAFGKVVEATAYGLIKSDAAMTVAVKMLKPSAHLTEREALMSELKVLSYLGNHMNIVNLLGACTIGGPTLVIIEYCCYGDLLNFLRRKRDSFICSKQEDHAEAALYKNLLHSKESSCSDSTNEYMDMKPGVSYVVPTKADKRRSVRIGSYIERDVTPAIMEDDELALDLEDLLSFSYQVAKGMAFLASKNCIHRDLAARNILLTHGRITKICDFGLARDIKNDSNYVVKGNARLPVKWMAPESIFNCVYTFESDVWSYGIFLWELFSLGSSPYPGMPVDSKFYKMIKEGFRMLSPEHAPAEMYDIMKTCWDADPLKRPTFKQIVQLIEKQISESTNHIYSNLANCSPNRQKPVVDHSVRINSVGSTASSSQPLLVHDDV

[1] = molecular target: T3, ABL1(T315I)-phosphorylated (Homo sapiens, UniProt P00519, T315I)
T3 construct: purchased Eurofins DiscoverX, LLC; host or cells: E. coli BL21-derived (T7 phage) or HEK-293

RAF1 = molecular target: T4, RAF1 (Homo sapiens, UniProt P04049)
T4 construct: purchased Eurofins DiscoverX, LLC; host or cells: E. coli BL21-derived host (T7 phage) or HEK-293
T4 sequence (P04049 whole entry): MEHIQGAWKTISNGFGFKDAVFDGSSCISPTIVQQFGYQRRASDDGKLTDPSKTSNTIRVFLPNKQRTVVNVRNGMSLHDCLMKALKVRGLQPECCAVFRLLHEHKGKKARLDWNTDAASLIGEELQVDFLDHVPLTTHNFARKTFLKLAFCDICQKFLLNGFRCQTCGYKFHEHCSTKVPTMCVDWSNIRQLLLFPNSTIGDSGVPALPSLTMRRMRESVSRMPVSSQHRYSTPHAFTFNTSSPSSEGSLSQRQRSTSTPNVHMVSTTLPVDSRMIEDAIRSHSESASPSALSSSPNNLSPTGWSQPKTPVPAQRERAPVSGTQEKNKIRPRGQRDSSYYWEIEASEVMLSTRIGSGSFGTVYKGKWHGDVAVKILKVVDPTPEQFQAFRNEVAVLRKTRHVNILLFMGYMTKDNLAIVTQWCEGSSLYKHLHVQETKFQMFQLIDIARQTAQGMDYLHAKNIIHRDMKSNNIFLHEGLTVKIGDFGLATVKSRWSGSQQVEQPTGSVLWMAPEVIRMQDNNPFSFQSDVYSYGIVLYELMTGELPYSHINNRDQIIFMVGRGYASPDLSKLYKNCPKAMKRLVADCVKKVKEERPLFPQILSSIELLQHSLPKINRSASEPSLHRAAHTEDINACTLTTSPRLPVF

ADCK3 = molecular target: T5, ADCK3 (Homo sapiens, UniProt Q8NI60)
T5 construct: purchased Eurofins DiscoverX, LLC; host or cells: E. coli BL21-derived (T7 phage) or HEK-293
T5 sequence (Q8NI60 163-647): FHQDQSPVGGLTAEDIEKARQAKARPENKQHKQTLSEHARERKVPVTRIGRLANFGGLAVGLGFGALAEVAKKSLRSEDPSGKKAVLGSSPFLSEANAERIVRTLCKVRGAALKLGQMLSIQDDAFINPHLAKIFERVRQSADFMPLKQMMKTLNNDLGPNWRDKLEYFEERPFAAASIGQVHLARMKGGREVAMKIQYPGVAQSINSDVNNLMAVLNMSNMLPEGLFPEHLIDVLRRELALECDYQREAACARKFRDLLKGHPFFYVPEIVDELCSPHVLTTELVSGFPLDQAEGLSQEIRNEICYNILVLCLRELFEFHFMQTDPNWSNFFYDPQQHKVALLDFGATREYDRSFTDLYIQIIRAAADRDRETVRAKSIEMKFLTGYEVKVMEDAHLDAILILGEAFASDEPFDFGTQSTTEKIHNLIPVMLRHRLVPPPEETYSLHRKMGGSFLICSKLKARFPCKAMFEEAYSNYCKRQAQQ

YANK3 = molecular target: T6, YANK3 (Homo sapiens, UniProt Q86UX6)
T6 construct: purchased Eurofins DiscoverX, LLC; host or cells: E. coli BL21-derived host (T7 phage) or HEK-293
T6 sequence (Q86UX6 whole entry): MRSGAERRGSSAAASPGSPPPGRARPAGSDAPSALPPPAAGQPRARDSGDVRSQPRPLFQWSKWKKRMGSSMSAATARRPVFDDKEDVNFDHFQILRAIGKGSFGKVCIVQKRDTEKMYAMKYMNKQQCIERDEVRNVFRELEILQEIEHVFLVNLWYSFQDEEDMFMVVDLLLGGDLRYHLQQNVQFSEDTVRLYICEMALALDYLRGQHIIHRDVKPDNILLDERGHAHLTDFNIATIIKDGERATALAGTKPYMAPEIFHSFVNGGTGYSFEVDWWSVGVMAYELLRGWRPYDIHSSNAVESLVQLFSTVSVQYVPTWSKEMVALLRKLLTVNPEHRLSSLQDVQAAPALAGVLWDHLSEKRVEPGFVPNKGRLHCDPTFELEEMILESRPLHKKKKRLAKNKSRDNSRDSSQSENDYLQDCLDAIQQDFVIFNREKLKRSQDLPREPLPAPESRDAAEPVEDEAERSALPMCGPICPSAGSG

FLT3 = molecular target: T7, FLT3 (Homo sapiens, UniProt P36888)
T7 construct: purchased Eurofins DiscoverX, LLC; host or cells: E. coli (T7 phage) or HEK-293
T7 sequence (P36888 27-993): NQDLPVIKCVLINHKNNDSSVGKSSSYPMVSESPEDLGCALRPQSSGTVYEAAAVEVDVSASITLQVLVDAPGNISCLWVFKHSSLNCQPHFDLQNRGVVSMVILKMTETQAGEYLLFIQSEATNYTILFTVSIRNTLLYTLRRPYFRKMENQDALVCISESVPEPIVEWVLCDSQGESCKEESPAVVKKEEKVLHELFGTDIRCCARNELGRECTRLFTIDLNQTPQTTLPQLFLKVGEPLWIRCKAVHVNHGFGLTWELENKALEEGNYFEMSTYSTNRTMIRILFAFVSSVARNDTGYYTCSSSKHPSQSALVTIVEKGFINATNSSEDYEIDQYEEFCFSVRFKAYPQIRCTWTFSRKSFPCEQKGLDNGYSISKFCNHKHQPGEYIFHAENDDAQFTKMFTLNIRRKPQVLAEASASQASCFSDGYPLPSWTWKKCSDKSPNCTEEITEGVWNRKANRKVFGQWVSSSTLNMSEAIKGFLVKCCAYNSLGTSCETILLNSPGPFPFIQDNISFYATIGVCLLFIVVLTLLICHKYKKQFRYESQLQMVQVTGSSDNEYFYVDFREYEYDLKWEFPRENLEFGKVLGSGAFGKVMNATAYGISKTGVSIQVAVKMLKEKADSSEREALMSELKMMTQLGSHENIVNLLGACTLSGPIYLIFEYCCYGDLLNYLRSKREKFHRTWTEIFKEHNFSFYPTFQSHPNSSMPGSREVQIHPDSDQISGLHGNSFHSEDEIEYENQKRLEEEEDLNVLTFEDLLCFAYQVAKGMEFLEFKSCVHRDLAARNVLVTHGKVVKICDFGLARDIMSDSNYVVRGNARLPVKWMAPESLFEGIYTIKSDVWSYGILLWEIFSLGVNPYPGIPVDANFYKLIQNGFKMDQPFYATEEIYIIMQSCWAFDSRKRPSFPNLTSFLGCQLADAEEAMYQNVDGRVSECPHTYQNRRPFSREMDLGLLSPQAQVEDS

MET = molecular target: T8, MET (Homo sapiens, UniProt P08581)
T8 construct: purchased Eurofins DiscoverX, LLC; host or cells: E. coli (BL21-derived, T7 phage) or HEK-293
T8 sequence (P08581 25-1390): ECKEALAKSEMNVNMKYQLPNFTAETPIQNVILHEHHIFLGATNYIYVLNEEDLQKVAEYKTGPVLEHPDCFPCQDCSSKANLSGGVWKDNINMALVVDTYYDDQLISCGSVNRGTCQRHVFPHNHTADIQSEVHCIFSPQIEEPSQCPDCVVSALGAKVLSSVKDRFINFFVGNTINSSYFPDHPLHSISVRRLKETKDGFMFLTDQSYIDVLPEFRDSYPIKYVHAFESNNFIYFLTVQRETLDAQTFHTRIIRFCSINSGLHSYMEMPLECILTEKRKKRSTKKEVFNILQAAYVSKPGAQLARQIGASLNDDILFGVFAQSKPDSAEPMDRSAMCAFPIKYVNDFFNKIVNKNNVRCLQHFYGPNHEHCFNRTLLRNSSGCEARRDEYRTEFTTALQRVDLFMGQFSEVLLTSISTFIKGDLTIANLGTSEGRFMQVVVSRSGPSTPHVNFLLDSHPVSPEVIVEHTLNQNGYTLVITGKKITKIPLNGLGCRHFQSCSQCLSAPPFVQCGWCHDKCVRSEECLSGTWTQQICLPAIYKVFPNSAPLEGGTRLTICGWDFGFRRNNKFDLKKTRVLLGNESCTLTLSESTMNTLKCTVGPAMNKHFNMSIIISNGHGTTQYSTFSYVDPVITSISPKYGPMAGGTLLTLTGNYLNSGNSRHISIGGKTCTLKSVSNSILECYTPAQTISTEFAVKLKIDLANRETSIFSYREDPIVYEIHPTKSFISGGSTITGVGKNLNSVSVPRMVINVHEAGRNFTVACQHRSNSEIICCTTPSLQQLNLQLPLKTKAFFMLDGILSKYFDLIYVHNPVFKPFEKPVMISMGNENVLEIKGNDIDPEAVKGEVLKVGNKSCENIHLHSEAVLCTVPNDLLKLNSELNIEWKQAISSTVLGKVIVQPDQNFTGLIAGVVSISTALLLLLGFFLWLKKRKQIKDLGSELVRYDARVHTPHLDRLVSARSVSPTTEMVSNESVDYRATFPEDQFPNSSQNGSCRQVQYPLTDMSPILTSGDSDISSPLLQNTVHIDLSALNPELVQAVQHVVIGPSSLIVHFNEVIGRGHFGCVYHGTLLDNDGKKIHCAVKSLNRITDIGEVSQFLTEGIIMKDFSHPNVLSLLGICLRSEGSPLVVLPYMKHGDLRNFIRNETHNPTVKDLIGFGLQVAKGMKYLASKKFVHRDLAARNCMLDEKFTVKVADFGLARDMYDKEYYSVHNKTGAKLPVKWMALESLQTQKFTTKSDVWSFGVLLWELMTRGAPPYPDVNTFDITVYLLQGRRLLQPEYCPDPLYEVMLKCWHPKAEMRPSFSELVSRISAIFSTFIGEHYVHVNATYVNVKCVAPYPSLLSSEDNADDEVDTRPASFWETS

ERK1 = molecular target: T9, ERK1 (Homo sapiens, UniProt P27361)
T9 construct: purchased Eurofins DiscoverX, LLC; host or cells: E. coli (T7 phage) or HEK-293
T9 sequence (P27361 whole entry): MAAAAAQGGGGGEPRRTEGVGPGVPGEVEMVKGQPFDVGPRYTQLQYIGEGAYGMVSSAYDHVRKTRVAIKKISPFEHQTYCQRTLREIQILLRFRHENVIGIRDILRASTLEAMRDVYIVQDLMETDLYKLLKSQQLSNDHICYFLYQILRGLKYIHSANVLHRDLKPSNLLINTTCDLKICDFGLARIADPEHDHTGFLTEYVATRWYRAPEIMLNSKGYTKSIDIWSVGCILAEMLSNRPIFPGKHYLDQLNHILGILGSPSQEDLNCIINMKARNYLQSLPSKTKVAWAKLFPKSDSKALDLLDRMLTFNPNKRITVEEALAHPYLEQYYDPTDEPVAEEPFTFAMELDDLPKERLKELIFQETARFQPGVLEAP

NLK = molecular target: T10, NLK (Homo sapiens, UniProt Q9UBE8)
T10 construct: purchased Eurofins DiscoverX, LLC; host or cells: E. coli (BL21-derived, T7 phage) or HEK-293
T10 sequence (Q9UBE8 1-527): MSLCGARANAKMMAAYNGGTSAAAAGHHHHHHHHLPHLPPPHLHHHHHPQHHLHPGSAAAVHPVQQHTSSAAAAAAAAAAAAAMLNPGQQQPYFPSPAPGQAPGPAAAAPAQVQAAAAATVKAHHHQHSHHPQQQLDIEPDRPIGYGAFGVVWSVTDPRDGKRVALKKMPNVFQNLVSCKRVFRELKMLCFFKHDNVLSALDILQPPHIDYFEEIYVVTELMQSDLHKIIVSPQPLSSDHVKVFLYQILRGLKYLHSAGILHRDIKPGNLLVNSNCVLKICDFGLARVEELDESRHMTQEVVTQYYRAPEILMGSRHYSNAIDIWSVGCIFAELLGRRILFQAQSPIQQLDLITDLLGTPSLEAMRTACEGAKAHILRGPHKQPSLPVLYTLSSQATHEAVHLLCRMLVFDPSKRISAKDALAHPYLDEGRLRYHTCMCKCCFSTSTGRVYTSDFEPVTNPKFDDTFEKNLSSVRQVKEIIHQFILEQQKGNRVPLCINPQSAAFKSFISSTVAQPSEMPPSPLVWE

CDK2 = molecular target: T11, CDK2 (Homo sapiens, UniProt P24941)
T11 construct: purchased Eurofins DiscoverX, LLC; host or cells: E. coli BL21-derived (T7 phage) or HEK-293

T1 sequence (Q9HBH9 whole entry): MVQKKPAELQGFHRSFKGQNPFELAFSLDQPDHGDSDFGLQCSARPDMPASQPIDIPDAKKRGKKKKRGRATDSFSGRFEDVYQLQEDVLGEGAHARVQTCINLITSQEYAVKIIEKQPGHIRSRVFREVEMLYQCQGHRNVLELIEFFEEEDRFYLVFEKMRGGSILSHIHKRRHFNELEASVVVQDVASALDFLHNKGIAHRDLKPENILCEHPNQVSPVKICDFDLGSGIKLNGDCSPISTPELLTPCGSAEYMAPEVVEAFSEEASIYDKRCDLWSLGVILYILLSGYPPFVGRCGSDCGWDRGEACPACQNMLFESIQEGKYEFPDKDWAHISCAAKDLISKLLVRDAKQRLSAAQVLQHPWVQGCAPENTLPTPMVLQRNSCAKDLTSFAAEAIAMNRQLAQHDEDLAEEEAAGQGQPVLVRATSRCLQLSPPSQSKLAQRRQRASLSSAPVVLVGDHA

Compound | RA @ 1000nM (MKNK2) [%] | RA @ 10000nM (MKNK2) [%] | RA @ 1000nM (KIT(V559D,T670I)) [%] | RA @ 10000nM (KIT(V559D,T670I)) [%] | RA @ 1000nM [1] [%] | RA @ 10000nM [1] [%] | RA @ 1000nM (RAF1) [%] | RA @ 10000nM (RAF1) [%] | RA @ 1000nM (ADCK3) [%] | RA @ 10000nM (ADCK3) [%] | RA @ 1000nM (YANK3) [%] | RA @ 10000nM (YANK3) [%] | RA @ 1000nM (FLT3) [%] | RA @ 10000nM (FLT3) [%] | RA @ 1000nM (MET) [%] | RA @ 10000nM (MET) [%] | RA @ 1000nM (ERK1) [%] | RA @ 10000nM (ERK1) [%] | RA @ 1000nM (NLK) [%] | RA @ 10000nM (NLK) [%] | also measured
CC(C)Cn1ncc2cc(Cc3ccc(F)cc3F)c(C(=O)NCCN(C)C)cc21 [Compound 94, 5-(2,4-Difluorobenzyl)-N-(2-(dimethylamino)ethyl)-1-isobutyl-1H-indazole-6-carboxamide] | 76 | 80 | 100 | 100 | 93 | 90 | 100 | 100 | 100 | 100 | 100 | 100 | 100 | 90 | 96 | 100 | 87 | 87 | 100 | 98 | RA @ 1000nM (CDK2): 82%; RA @ 10000nM (CDK2): 97%
CN(C)CCNC(=O)c1cc2c(cnn2CC2CCCCC2)cc1Cc1ccc(F)cc1F [Compound 95, 1-(Cyclohexylmethyl)-5-(2,4-difluorobenzyl)-N-(2-(dimethylamino)ethyl)-1H-indazole-6-carboxamide] | 81 | 67 | 47 | 94 | 72 | 91 | 100 | 100 | 100 | 81 | 100 | 100 | 100 | 100 | 100 | 100 | 96 | 90 | 100 | 100 | RA @ 1000nM (CDK2): 99%; RA @ 10000nM (CDK2): 100%
